Assay results published in US20240132498A1, “CRYSTALLINE FORMS OF 5-(3,4-DIFLUOROBENZYL)-8-((1R,4R)-4-METHYLCYCLOHEXYL)-6,9-DIOXO-2,5,8-TRIAZASPIRO[3.5]NONANE-2-CARBALDEHYDE” (Cytokinetics, Incorporated, priority 2022, published 2024).

Key:
[1] = Projected single-dose CL and Vss values in humans (allometric scaling); details: human, allometric scaling of mouse, rat, dog, cynomolgus monkey IV PK
Description: Allometric scaling for the prediction of human Clearance and Volume of Distribution was based on interspecies simple allometric scaling of mouse, rat, dog, and cynomolgus monkey intravenous pharmacokinetic parameters (Boxenbaum, J Pharmacokinet Biopharm 10:201-27, 1982). Prediction of human CL was performed by extrapolating pre-clinical species' plasma intravenous clearance. The ‘rule of exponents’ (Mahmood & Balian, Life Sci. 59:579-85, 1996) was examined in this prediction, where it has been proposed that, when the exponent of simple allometry lies between 0.71 and 0.99, a correction factor based on Maximum Life Span (MLP) of this species can be applied and, when the exponent of simple allometry is greater than 1.0, a correction factor based on Brain Weight (BrW) can be applied, or a protein binding correction can be applied when available. In a similar manner, simple allometric scaling was employed to predict human Volume of Distribution. This method has been used successfully for varied drugs (Ward & Smith, Drug Metab Dispos 32:612-19, 2004; McGinnity et al., Curr Drug Metab 8:463-79, 2007).

[2] = Dog single dose pharmacokinetics; type: in vivo; details: male, plasma, intravenous, beagle dogs; for Vd: read-out: Vss
Description: Non-naïve male beagle dogs (8 months −3 years of age, body weight 8-13 kg) were used in this study. All animals for IV administration had free access to food and water; all animals for PO were fasted overnight prior to dosing and were fed approximately 6 hours after dosing. For the animals in PO group, pentagastrin (6.0 μg/kg, i.m.) was administrated 20 minutes before dosing PO formulation and 1.5 hours after the second pentagastrin dosing. The dosing volume was 0.024 mL/kg, the concentration was 250 μg/mL in DMSO/1 N NaOH/PBS. 10 mL of 0.001 N HCl was used to wash the gavage catheter for each animal. The IV dose solution was prepared in 10% DMA/50% PG/40% HPOCD solution (40% w/v aqueous HPOCD) at a concentration of 1.0 mg/mL. The oral dose suspension was prepared by suspending the compound in 0.5% HPMC/0.1% Tween 80 in distilled water at a concentration of 0.2 mg/mL. Concentrations of IV and PO doses were measured at the end of the study. PK parameters were calculated using the nominal dose values if the measured values were within 20% of the nominal values. Blood samples were collected by venipuncture of peripheral veins except the dosing vein at pre-dose, 5 15, 30 min, 1, 2, 4, 6, 8, 24 and 48 h post-dose. Blood samples were centrifuged and resultant plasma was frozen for bioanalysis. Plasma samples were stored at −80° C. before analysis. Plasma samples were analyzed for compound concentrations using the LC/MS/MS method. Briefly, a 50 μL aliquot of each plasma sample was mixed with 100 μL of acetonitrile that contained an internal standard. The mixture was vortexed and centrifuged. Ten (10) μL of the resulting solution was injected onto a reverse-phase C18 column and the resultant peaks detected on a LC/MS/MS equipped with a turbo ionspray ionization source. Sample concentrations below the limit of quantification (BLQ) were treated as zero for PK calculations. PK parameters were estimated from individual animals using noncompartmental analysis of the concentration-time data (Phoenix WinNonLin software, version 64; Pharsight, Mountain View, CA). The elimination rate constant (k) was calculated as the absolute value of the slope of the linear regression of logarithm (log) of the concentration versus time for the last three data points of the concentration-time profiles. Apparent elimination half-life (t1/2) values were calculated as 1n(2)/k. Area under the concentration-time curve (AUC) values were estimated using linear trapezoidal method. AUCt values were calculated from the dosing time to the last measurable concentration. AUC∞ values were calculated as the sum of the corresponding AUC and the ratio of the last detectable concentration divided by k. Plasma clearance (CL) was calculated from Dose/AUC∞. Mean resident time extrapolated to infinity (MRT∞) was estimated by moment analysis. VSS, was calculated from MRT∞×CL. Maximum concentration (Cmax) and time to reach Cmax (tmax) were recorded as observed. As this was a cross-over study, bioavailability was calculated dAUC∞,po/dAUC∞,iv×100% where dAUC was the dose normalized AUC value from the same animal given IV and PO dose. Compounds tested were prepared in accordance with the synthetic procedures described herein.

SMILES	Projected t1/2 [1] [h]	clearance [2] [L/h/kg]	Vd [2] [L/kg]
O=CN1CC2(C1)C(=O)N([C@H]1CC[C@H](C(F)F)CC1)CC(=O)N2Cc1ccc(C(F)(F)F)cc1 [Comparator E, 8-((1r,4r)-4-(difluoromethyl)cyclohexyl)-6,9-dioxo-5-(4-(trifluoromethyl)benzyl)-2,5,8-triazaspiro[3.5]nonane-2-carbaldehyde]	51.7	0.0894	4.1
C[C@H]1CC[C@H](N2CC(=O)N(Cc3ccc(F)c(F)c3)C3(CN(C=O)C3)C2=O)CC1 [Compound 1, 5-(3,4-difluorobenzyl)-8-((1r,4r)-4-methylcyclohexyl)-6,9-dioxo-2,5,8-triazaspiro[3.5]nonane-2-carbaldehyde]	28.3	0.454	4.23
O=C1[C@H](C2COC2)N(Cc2ccc(C(F)(F)F)cc2)C(=O)CN1c1ncc(Cl)cc1F [Comparator C, (S)-1-(5-chloro-3-fluoropyridin-2-yl)-3-(oxetan-3-yl)-4-(4-(trifluoromethyl)benzyl)piperazine-2,5-dione, reference compound]	41	0.295	5.91
CC(=O)N1CC2(C1)C(=O)N(c1ccc(C#N)cc1F)CC(=O)N2Cc1ccc(C(F)(F)F)cc1 [Comparator D, 4-(2-acetyl-6,9-dioxo-5-(4-(trifluoromethyl)benzyl)-2,5,8-triazaspiro[3.5]nonan-8-yl)-3-fluorobenzonitrile]	62	0.213	6.7
O=CN1CC2(C1)C(=O)N(c1ccc(F)cc1F)CC(=O)N2Cc1ccc(Cl)cc1 [Comparator A, 5-(4-chlorobenzyl)-8-(2,4-difluorophenyl)-6,9-dioxo-2,5,8-triazaspiro[3.5]nonane-2-carbaldehyde]	38.7	0.0954	5.2
